These are literature values, as cited in patent publication US9458123B2, “Methods, pharmaceutical compositions, therapeutic systems, and compounds for treating B cell malignancies” (University of Rochester, priority 2012, dated 2016).

The structures appear in SMILES notation.

This data set deals with Ubc13 and Uev1A (Homo sapiens, UniProt P61088+Q13404). The note with it: previous studies; cited from earlier work.
Ubc13 and Uev1A, sequence (P61088 whole entry, species assumed): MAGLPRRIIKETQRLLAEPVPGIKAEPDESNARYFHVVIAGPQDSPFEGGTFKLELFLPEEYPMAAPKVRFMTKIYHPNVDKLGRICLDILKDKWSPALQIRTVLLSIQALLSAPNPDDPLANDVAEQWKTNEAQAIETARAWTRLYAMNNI
Ubc13 and Uev1A, sequence (Q13404 whole entry, species assumed): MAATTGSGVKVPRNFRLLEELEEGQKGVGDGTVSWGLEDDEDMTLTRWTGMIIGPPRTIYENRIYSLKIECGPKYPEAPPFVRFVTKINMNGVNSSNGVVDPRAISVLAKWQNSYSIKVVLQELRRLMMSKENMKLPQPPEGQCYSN

In the case of `C[C@@H](N)[C@@H](O)C/C=C\C/C=C\C/C=C\C/C=C\C/C=C\C/C=C\CCCCCC[C@H](O)[C@@H](C)N` [leucettamol A], the “complex formation between Ubc13 and Uev1A in vitro” value is listed as “inhibited”.
